# Reference: ChEMBL document CHEMBL5143565, “Toll-like receptor 7 and 8 imidazoquinoline-based agonist/antagonist pairs” (Bioorg Med Chem Lett, 2022)
# Experiments:
# [1] = target: T1, Toll-like receptor 7 (Homo sapiens, UniProt Q9NYK1); test: Agonist activity at TLR7 in human HEK-SEAP reporter cell assessed as NF-kappaB activation; type: cell-based
# T1 sequence (Q9NYK1 whole entry): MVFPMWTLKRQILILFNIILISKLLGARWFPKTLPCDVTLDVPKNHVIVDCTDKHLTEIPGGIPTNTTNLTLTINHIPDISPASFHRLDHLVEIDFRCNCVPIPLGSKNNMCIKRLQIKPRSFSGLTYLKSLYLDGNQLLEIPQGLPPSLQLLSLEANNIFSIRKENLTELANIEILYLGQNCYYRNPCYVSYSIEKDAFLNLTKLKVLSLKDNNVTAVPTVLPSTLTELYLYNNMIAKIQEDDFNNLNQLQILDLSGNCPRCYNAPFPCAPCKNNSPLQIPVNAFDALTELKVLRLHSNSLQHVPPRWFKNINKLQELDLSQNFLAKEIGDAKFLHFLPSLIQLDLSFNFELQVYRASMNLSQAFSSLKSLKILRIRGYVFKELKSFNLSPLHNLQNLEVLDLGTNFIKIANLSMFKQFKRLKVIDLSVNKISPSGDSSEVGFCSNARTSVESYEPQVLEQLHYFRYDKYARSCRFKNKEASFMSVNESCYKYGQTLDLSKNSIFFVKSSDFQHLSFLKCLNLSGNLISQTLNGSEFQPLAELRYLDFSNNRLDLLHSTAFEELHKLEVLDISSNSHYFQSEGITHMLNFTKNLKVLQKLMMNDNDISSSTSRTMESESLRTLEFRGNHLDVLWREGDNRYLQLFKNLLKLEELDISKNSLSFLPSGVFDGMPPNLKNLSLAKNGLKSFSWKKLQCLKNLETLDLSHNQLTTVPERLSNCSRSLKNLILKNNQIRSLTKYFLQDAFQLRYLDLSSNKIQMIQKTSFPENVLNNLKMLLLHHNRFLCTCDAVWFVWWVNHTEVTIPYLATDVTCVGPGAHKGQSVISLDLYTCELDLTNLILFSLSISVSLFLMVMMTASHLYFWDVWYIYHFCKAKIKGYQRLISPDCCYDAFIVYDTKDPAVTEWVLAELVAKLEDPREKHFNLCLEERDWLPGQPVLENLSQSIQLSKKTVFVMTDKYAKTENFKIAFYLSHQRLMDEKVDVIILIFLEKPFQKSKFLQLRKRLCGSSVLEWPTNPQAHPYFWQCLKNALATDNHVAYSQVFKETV
# [2] = target: T2, Toll-like receptor 8 (Homo sapiens, UniProt Q9NR97); test: Agonist activity at TLR8 in human HEK-SEAP reporter cell assessed as NF-kappaB activation; type: cell-based
# T2 sequence (Q9NR97 whole entry): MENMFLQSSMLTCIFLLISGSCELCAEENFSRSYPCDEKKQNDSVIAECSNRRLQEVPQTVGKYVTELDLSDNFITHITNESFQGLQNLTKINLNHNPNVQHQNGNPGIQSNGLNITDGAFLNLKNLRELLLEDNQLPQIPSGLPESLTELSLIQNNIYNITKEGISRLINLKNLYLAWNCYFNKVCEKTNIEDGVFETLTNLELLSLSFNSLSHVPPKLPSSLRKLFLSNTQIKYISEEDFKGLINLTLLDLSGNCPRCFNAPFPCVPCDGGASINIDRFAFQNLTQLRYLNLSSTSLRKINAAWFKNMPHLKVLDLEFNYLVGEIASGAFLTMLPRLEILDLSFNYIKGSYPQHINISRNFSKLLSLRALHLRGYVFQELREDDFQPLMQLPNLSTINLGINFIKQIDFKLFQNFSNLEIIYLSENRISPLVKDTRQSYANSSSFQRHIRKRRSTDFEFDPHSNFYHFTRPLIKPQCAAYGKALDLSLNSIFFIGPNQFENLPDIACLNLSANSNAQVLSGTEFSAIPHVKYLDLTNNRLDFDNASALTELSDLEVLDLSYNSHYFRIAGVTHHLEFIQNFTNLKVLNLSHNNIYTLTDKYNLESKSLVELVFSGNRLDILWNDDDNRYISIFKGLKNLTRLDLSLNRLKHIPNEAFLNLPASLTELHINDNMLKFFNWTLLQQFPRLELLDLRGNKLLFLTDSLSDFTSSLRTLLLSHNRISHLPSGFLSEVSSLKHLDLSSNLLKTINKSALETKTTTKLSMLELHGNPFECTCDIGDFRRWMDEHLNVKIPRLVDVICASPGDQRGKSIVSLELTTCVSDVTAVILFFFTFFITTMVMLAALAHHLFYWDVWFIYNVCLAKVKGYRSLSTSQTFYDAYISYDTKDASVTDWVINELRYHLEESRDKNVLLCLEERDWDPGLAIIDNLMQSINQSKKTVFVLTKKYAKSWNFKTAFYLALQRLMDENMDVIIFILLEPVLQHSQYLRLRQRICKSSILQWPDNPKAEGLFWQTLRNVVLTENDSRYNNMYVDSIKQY
EC50 [1],EC50 [2],SMILES
210 nM,–,CC(C)Cc1nc2c(N)nc3ccccc3c2n1Cc1ccc(CN)cc1
990 nM,–,CC(O)Cn1c(CC2CC2)nc2c(N)nc3ccccc3c21 (centres undefined)
13200 nM,–,COC(=O)c1ccc2c(c1)nc(N)c1nc(CC3CC3)n(CC(C)O)c12 (centres undefined)
–,27 µM,CC(C)Cc1nc2c(N)nc3ccccc3c2n1CC(C)O (centres undefined)
